Source: ChEMBL document CHEMBL4673280, “Discovery and SAR studies of 2-alkyl-3-phenyl-2,4,5,6,7,8-hexahydropyrazolo[3,4-d]azepines as 5-HT inhibitors leading to the identification of a clinical candidate” (Bioorg Med Chem Lett, 2021)

Experiments:
[1] = molecular target: T1, Adrenergic receptor alpha-1 (Rattus norvegicus, UniProt P15823+P23944+P43140); assay: Displacement of […] from alpha1 adrenergic receptor in rat cortex membrane incubated for 60 mins by competitive radioligand binding assay; assay type: cell membranes
T1 sequence (P15823 whole entry): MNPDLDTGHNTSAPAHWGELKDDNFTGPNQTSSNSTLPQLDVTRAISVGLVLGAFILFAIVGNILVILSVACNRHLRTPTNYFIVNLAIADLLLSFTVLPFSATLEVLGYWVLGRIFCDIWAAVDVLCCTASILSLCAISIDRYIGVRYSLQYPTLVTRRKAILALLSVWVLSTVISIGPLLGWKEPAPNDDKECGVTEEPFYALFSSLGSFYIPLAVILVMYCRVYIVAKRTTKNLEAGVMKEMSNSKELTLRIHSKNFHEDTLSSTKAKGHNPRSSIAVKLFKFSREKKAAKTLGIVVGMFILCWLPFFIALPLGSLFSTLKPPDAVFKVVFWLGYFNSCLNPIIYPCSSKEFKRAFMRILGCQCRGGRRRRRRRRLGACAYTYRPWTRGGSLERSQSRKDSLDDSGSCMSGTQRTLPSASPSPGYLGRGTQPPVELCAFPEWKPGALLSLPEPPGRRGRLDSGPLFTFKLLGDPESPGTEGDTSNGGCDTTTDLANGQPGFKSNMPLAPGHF
T1 sequence (P23944 whole entry): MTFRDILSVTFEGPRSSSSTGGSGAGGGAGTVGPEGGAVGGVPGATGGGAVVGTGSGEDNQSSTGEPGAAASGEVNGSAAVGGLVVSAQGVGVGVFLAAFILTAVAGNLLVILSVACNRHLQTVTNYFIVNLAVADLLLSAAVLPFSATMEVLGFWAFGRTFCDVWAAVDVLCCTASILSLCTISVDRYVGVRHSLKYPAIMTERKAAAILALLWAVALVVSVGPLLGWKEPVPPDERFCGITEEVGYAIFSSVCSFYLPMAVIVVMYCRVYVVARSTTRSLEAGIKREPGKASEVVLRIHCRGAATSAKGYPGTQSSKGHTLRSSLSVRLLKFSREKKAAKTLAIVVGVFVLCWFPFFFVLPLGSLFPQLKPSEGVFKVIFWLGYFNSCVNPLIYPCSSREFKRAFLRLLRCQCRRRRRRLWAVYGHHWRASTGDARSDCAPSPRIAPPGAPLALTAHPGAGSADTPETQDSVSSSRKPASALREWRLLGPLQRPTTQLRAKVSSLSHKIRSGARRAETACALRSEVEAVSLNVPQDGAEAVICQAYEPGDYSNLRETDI
T1 sequence (P43140 whole entry): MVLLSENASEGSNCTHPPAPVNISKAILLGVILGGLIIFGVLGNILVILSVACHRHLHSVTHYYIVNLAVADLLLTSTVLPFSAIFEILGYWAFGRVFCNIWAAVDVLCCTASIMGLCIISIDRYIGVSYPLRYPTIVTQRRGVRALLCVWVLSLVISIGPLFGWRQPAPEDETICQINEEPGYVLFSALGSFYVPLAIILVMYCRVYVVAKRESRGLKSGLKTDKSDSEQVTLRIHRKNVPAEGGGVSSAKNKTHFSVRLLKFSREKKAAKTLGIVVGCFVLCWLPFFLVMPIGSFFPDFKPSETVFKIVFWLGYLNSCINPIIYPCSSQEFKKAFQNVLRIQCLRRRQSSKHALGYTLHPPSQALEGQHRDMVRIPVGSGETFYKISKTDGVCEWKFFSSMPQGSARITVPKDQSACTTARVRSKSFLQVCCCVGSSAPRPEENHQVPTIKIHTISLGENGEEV

[2] = molecular target: T2, 5-hydroxytryptamine receptor 2C (Homo sapiens, UniProt P28335); assay: Displacement of [3H]-ketanserin from human 5-HT2C receptor by competitive radioligand binding assay
T2 sequence (P28335 whole entry): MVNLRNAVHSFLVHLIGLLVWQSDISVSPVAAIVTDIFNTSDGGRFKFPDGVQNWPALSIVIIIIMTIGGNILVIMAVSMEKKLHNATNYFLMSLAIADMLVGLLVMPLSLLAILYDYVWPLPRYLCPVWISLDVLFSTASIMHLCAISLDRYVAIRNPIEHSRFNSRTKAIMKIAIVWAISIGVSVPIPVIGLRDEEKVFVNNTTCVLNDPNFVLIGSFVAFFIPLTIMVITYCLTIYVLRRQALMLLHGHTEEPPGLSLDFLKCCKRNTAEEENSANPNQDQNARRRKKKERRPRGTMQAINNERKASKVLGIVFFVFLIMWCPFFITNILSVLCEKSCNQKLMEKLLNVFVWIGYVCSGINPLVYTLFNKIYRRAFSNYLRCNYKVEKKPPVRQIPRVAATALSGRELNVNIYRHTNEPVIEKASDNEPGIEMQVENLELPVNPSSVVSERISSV

[3] = molecular target: 5-hydroxytryptamine receptor 2B (Homo sapiens, UniProt P41595); assay: Displacement of [3H]-ketanserin from human 5-HT2B receptor by competitive radioligand binding assay
[4] = molecular target: 5-hydroxytryptamine receptor 2A (Homo sapiens, UniProt P28223); assay: Displacement of [3H]-ketanserin from human 5-HT2A receptor by competitive radioligand binding assay
[5] = molecular target: 5-hydroxytryptamine receptor 7 (Rattus norvegicus, UniProt P32305); assay: Displacement of [3H]-CT from rat 5-HT7 receptor expressed in HEK293 cells by competitive radioligand binding assay; assay type: cell-based
5-hydroxytryptamine receptor 7, sequence (P32305 whole entry): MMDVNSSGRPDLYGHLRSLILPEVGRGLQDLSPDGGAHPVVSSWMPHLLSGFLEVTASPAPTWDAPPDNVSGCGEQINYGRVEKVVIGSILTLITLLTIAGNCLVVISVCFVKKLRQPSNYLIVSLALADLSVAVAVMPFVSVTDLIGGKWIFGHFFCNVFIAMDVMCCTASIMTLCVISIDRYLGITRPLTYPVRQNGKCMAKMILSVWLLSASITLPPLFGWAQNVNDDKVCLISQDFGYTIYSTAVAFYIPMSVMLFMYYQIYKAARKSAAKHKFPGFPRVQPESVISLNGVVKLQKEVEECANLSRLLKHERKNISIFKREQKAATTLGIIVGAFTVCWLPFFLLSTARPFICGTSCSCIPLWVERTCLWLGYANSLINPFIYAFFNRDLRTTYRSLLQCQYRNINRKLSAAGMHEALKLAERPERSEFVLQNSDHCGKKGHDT

5-hydroxytryptamine receptor 2B, sequence (P41595 whole entry): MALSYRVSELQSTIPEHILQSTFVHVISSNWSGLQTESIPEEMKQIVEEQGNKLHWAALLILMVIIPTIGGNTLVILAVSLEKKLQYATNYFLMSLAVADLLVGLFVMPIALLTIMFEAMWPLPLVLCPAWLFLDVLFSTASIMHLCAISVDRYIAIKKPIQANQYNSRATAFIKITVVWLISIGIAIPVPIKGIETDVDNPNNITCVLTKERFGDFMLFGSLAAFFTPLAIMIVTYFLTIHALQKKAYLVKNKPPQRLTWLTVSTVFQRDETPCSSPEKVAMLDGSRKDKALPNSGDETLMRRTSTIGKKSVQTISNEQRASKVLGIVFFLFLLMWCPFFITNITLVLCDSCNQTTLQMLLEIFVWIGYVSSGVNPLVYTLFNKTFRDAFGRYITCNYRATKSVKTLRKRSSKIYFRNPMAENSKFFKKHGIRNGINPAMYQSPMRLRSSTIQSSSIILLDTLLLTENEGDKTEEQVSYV
5-hydroxytryptamine receptor 2A, sequence (P28223 whole entry): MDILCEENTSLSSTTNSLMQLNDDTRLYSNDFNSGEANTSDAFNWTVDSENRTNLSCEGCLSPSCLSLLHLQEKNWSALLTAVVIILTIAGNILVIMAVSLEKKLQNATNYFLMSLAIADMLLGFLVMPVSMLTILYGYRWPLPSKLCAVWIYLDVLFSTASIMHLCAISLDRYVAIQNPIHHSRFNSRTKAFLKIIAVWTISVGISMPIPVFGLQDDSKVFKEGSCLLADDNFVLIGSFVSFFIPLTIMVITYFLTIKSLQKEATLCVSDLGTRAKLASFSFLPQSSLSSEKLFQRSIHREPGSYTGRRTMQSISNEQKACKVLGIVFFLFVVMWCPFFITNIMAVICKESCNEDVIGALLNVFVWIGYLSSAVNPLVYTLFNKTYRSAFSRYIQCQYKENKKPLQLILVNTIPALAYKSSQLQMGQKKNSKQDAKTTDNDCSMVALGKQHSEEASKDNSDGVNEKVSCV

Structure (SMILES): CNc1ccc(-c2c3c(nn2C(C)C)CCNCC3)cc1
- Ki [1]: 16 nM
- Ki [2]: 210 nM
- Ki [3]: 24 nM
- Ki [4]: 3 nM
- Ki [5]: 40 nM
